EC50 data for 50 molecules are collected here from patent US8796460B2, “Compounds for inhibiting KSP kinesin activity” (Mercky Sharp & Dohme Corp., priority 2007, dated 2014).

Each structure is given as a SMILES string.

One assay deals with HCT116 colon cancer cells. Briefly: KSP Cellular Assay (percent of cells staining positive for Phos-Histone H3 / Phos-MPM2). The assay is classed as cell-based. The conditions noted are these: Homo sapiens, HCT-116, 16 h, table of Example 1801 (headed Table 1201); HCT116 cells, 16 hours with drug; read-out: EC50 (nM) Range. The procedure, abridged: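 HCT116 cells treated with compound for 16 hours, fixed and stained with Hoechst plus Phos-Histone H3 (ser10) and Phos-MPM2 antibodies. Percent positive cells from immunofluorescence imaging; EC50 by sigmoidal nonlinear regression over 8-point dilutions in duplicate.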
As for `CC(=O)N1N=C(c2cc(C(F)(F)F)ccc2F)S[C@@]12c1ccccc1OC[C@H]2CCN` [compound 1806], the EC50 – broadly, the concentration that produces a half-maximal response – was ≤ 500 nM.

For `CC(=O)N1N=C(c2cc(C(F)(F)F)ccc2F)S[C@]12c1ccccc1OC[C@@H]2CCN` [compound 1807], the EC50 was > 1000 nM. In the case of `CC(=O)N1N=C(c2ccccc2)S[C@@]12c1ccccc1OC[C@H]2CCN` [compound 1808], the half-maximal effective concentration (EC50) is ≤ 500 nM. For the molecule `CC(=O)N1N=C(c2ccccc2)S[C@]12c1ccccc1OC[C@@H]2CCN` [compound 1809], the EC50 was > 1000 nM. The same measure, in the same setting: then `CC(=O)N1N=C(c2cccc(F)c2)S[C@@]12c1ccccc1OC[C@H]2CCN` [compound 1810], with ≤ 500 nM; and `CC(=O)N1N=C(c2cccc(F)c2)S[C@]12c1ccccc1OC[C@@H]2CCN` [compound 1811], with > 1000 nM; and `CC(=O)N1N=C(c2cccc(Cl)c2)S[C@@]12c1ccccc1OC[C@H]2CCN` [compound 1812], with ≤ 500 nM.

As for `CC(=O)N1N=C(c2cccc(Cl)c2)S[C@]12c1ccccc1OC[C@@H]2CCN` [compound 1813], the concentration for a half-maximal effect (EC50) was > 1000 nM. For the molecule `CC(=O)N1N=C(c2cccc(C(F)(F)F)c2)S[C@@]12c1ccccc1OC[C@H]2CCN` [compound 1814], the EC50 was ≤ 500 nM.

For the molecule `CC(=O)N1N=C(c2cc(F)cc(F)c2)S[C@@]12c1ccccc1OC[C@H]2CCN` [compound 1815], the concentration for a half-maximal effect (EC50) is ≤ 500 nM. Still for that read-out and setting: the same measure for `CC(=O)N1N=C(c2ccc(F)cc2F)S[C@]12c1ccccc1OC[C@@H]2CCN` [compound 1816]: > 1000 nM; for `CC(=O)N1N=C(c2cccc(C(F)(F)F)c2)S[C@]12c1ccccc1OC[C@@H]2CCN` [compound 1817]: > 1000 nM; for `CC(=O)N1N=C(c2cc(F)cc(F)c2)S[C@]12c1ccccc1OC[C@@H]2CCN` [compound 1818]: > 1000 nM. On the same count and under the same terms, the same measure for `CC(=O)N1N=C(c2ccc(F)cc2F)S[C@@]12c1cc(F)ccc1OC[C@H]2CCN` [compound 1819]: ≤ 500 nM; for `CC(=O)N1N=C(c2ccc(F)c(F)c2)S[C@@]12c1cc(F)ccc1OC[C@H]2CCN` [compound 1820]: ≤ 500 nM.

Turning to `CC(=O)N1N=C(c2cc(F)cc(F)c2)S[C@@]12c1cc(F)ccc1OC[C@H]2CCN` [compound 1821], the EC50 is ≤ 500 nM.

`CC(=O)N1N=C(c2ccc(F)cc2F)S[C@]12c1cc(F)ccc1OC[C@@H]2CCN` [compound 1822]: the EC50 is > 1000 nM. The same measure, in the same setting: then `CC(=O)N1N=C(c2ccc(F)c(F)c2)S[C@]12c1cc(F)ccc1OC[C@@H]2CCN` [compound 1823], with > 1000 nM; and `CC(=O)N1N=C(c2cc(F)cc(F)c2)S[C@]12c1cc(F)ccc1OC[C@@H]2CCN` [compound 1824], with > 1000 nM.

The assay is the same for the next values; noted with them: Homo sapiens, HCT-116, 16 h, table of Example 1901; HCT116 cells, 16 hours with drug; read-out: EC50 (nM) Range.
As for `CO[C@@H](C)C(=O)N1N=C(c2cc(F)ccc2F)S[C@@]12c1cc(F)ccc1OC[C@H]2CCN` [compound 1902], the EC50 is ≤ 500 nM.

For `CO[C@H](C)C(=O)N1N=C(c2cc(F)ccc2F)S[C@]12c1cc(F)ccc1OC[C@@H]2CCN` [compound 1903], the concentration for a half-maximal effect (EC50) was > 1000 nM.

On to `CO[C@H](C)C(=O)N1N=C(c2cc(F)ccc2F)S[C@@]12c1cc(F)ccc1OC[C@H]2CCN` [compound 1904], for which the EC50 was ≤ 500 nM.

Take `COCCOCC(=O)N1N=C(c2cc(F)ccc2F)S[C@]12c1cc(F)ccc1OC[C@@H]2CCN` [compound 1905]: the EC50 was > 1000 nM. The same measure, in the same setting: then `COCCOCC(=O)N1N=C(c2cc(F)ccc2F)S[C@@]12c1cc(F)ccc1OC[C@H]2CCN` [compound 1906], with ≤ 500 nM; and `CO[C@@H](C)C(=O)N1N=C(c2cc(F)ccc2F)S[C@@]12c1cc(F)cc(F)c1OC[C@H]2CCN` [compound 1907], with ≤ 500 nM. Still for that read-out and setting: then `CO[C@@H](C)C(=O)N1N=C(c2cc(F)ccc2F)S[C@]12c1cc(F)cc(F)c1OC[C@@H]2CCN` [compound 1908], with > 1000 nM; and `COCCOCC(=O)N1N=C(c2cc(F)ccc2F)S[C@@]12c1ccccc1OC[C@H]2CCN` [compound 1909], with ≤ 500 nM; and `COCCOCC(=O)N1N=C(c2cc(F)ccc2F)S[C@]12c1ccccc1OC[C@@H]2CCN` [compound 1910], with > 1000 nM. Turning to `COCCOCC(=O)N1N=C(c2cc(F)ccc2F)S[C@@]12c1cc(F)cc(F)c1OC[C@H]2CCN` [compound 1911], the 50% effective concentration (EC50) was ≤ 500 nM.

Take `COCCOCC(=O)N1N=C(c2cc(F)ccc2F)S[C@]12c1cc(F)cc(F)c1OC[C@@H]2CCN` [compound 1912]: the concentration for a half-maximal effect (EC50) was > 1000 nM.

The same assay, now with this note: Homo sapiens, HCT-116, 16 h, table of Example 2001; HCT116 cells, 16 hours with drug; read-out: EC50 (nM) Range.
With `COCC(=O)N1N=C(c2cc(F)ccc2F)S[C@]12c1ccccc1OC[C@@H]2CCN` [compound 2003], the 50% effective concentration (EC50) was ≤ 500 nM. `COCC(=O)N1N=C(c2cc(F)ccc2F)S[C@@]12c1ccccc1OC[C@H]2CCN` [compound 2004]: the EC50 is ≤ 500 nM. Still for that read-out and setting: then `NCC[C@H]1COc2ccccc2[C@]12SC(c1cc(F)ccc1F)=NN2C(=O)C(F)F` [compound 2005], with ≤ 500 nM; and `CO[C@@H](C)C(=O)N1N=C(c2cc(F)ccc2F)S[C@]12c1ccccc1OC[C@@H]2CCN` [compound 2007], with ≤ 500 nM.

For `CO[C@@H](C)C(=O)N1N=C(c2cc(F)ccc2F)S[C@@]12c1ccccc1OC[C@H]2CCN` [compound 2008], the EC50 is ≤ 500 nM.

Staying with this assay, now noted: Homo sapiens, HCT-116, 16 h, table of Example 2101; HCT116 cells, 16 hours with drug; read-out: EC50 (nM) Range.
For the molecule `CCOC(=O)N1N=C(c2cc(F)ccc2F)S[C@]12c1cc(F)ccc1OC[C@@H]2CCN` [compound 2102], the concentration giving a half-maximal response (EC50) was > 1000 nM. Same read-out and setting: the same measure for `CCOC(=O)N1N=C(c2cc(F)ccc2F)S[C@@]12c1ccccc1OC[C@H]2CCN` [compound 2103]: > 1000 nM; for `CCOC(=O)N1N=C(c2cc(F)ccc2F)S[C@]12c1ccccc1OC[C@@H]2CCN` [compound 2104]: ≤ 500 nM.

The assay is the same for the next values; noted with them: Homo sapiens, HCT-116, 16 h, table of Example 2201; HCT116 cells, 16 hours with drug; read-out: EC50 (nM) Range.
On to `CN(C)C(=O)N1N=C(c2cc(F)ccc2F)S[C@]12c1cc(F)ccc1OC[C@@H]2CCN` [compound 2202], for which the EC50 was > 1000 nM. For `CN(C)C(=O)N1N=C(c2cc(F)ccc2F)S[C@]12c1ccccc1OC[C@@H]2CCN` [compound 2204], the EC50 is ≤ 500 nM. In the case of `NCC[C@@H]1COc2ccccc2[C@@]12SC(c1cc(F)ccc1F)=NN2C(=O)N1CCOCC1` [compound 2205], the 50% effective concentration (EC50) is > 1000 nM. With `NCC[C@H]1COc2ccccc2[C@]12SC(c1cc(F)ccc1F)=NN2C(=O)N1CCOCC1` [compound 2206], the concentration giving a half-maximal response (EC50) is > 1000 nM.

Staying with this assay, now noted: Homo sapiens, HCT-116, 16 h, table of Example 2301; HCT116 cells, 16 hours with drug; read-out: EC50 (nM) Range.
With `CC(=O)N1N=C(c2cc(F)ccc2F)SC12c1ccccc1OCC2CCO` (centres unmarked) [compound 2301], the half-maximal effective concentration (EC50) is ≤ 500 nM. The same measure, in the same setting: the same measure for `Fc1ccc(F)c(C2=NN3CCC4COc5ccccc5C43S2)c1` (centres unmarked) [compound 2302]: > 1000 nM.

Still in this assay, the particulars now being: Homo sapiens, HCT-116, 16 h, table of Example 2401; HCT116 cells, 16 hours with drug; read-out: EC50 (nM) Range.
For `CC(=O)N1N=C(c2cc(F)ccc2F)S[C@]12CCNc1ccccc12` [compound 2402], the concentration giving a half-maximal response (EC50) is > 1000 nM.

The same assay, now with this note: Homo sapiens, HCT-116, 16 h, table of Example 2501; HCT116 cells, 16 hours with drug; read-out: EC50 (nM) Range.
For `CC(=O)N1N=C(c2cc(F)ccc2F)S[C@]12c1ccccc1NC[C@@H]2CCO` [compound 2501], the 50% effective concentration (EC50) was ≤ 500 nM. Still for that read-out and setting: then `CC(=O)N1N=C(c2cc(F)ccc2F)S[C@@]12c1ccccc1NC[C@H]2CCO` [compound 2502], with ≤ 500 nM.

Staying with this assay, now noted: Homo sapiens, HCT-116, 16 h, table of Example 2701; HCT116 cells, 16 hours with drug; read-out: EC50 (nM) Range.
Turning to `CC(=O)N1N=C(c2cc(F)ccc2F)S[C@]12c1ccccc1NC[C@H]2CCN` [compound 2701], the EC50 was ≤ 500 nM.

The same assay, now with this note: Homo sapiens, HCT-116; table of Example 2001; HCT116 cells, 16 hours with drug; read-out: EC50 (nM) Range.
Take `NCC[C@H]1COc2ccccc2[C@]12SC(c1cc(F)ccc1F)=NN2C(=O)CF` [compound 2001]: the EC50 was ≤ 500 nM. As to `NCC[C@@H]1COc2ccccc2[C@@]12SC(c1cc(F)ccc1F)=NN2C(=O)CF` [compound 2002], the EC50 is ≤ 500 nM.
